For 27 molecules, IC50 results are on record in US9422292B2, “Bromodomain inhibitors and uses thereof” (Constellation Pharmaceuticals, Inc., priority 2011, dated 2016).

Where two headings read alike, the source gives them in different places.

Assay [1] relates to IL-6 secretion in THP-1 cells. Nature of the assay: Cell-based IL-6 quantification assay (ELISA, Mesoscale) in LPS-treated THP-1 cells. As to conditions: Homo sapiens, LPS 4 μg/mL, 16 h, ELISA value/CellTiter-Glo ratio. As for the experimental part:
C. Cell-Based IL-6 Quantification Assay (ELISA, Mesoscale Assay):
100,000 THP-1 cells were seeded in RPMI1640-10% FBS in 96-well plates. LPS (E. Coli Invitrogen) in RPMI−10% FBS at a final concentration of 4 μg/mL was added to the wells and the cells are then incubated in the presence of various concentrations of compounds for 16 h. Plates are spun ([…], 5 min), an aliquot of 25 uL supernatant is transferred in to an ELISA plate (Mesoscale technology, MSD) and the detection of IL-6 is performed using manufacturer's instructions. The amount of cells in each well is assessed using CellTiter-Glo® (Promega). The ratio of ELISA value/CellTiter-Glo value is used to calculate the percent of inhibition of IL-6 secretion.

The next assay has as its target T1, BRD4 (BD1) (Homo sapiens, UniProt O60885).
T1 construct: His; made in house
Nature of the assay: BRD4 AlphaLisa binding assay. As for the experimental part:
A. IC50 Measurements for Inhibitors Using BRD4 AlphaLisa Binding Assay.
Specifically, in a 384 well ProxiPlate BRD4 (BD1) (30 nM final) was combined with peptide (200 nM final) in 40 mM HEPES (pH 7.0), 40 mM NaCl, 1 mM DTT, 0.01% (w/v) BSA, and 0.008% (w/v) Brij-35 either in the presence of DMSO (final 1.2% DMSO) or compound dilution series in DMSO. After 20 minute incubation at room temperature Alpha streptavidin donor beads and AlphaLisa anti-Flag acceptor beads were added to a final concentration of 10 ug/mL each. After three hours equilibration plates were read on an Envision instrument and IC50s calculated using a four parameter non-linear curve fit.

Assay [2] has as its system MYC mRNA in MV4:11 (AML) cells. The assay is described as follows: cMyc RNA quantification assay (QuantiGene) in MV4:11 cells. It counts as cell-based. The following applies: Homo sapiens, 4 h, QuantiGene 2.0. As for the experimental part: B. cMyc RNA Quantification Assay (QuantiGene® Assay):
MV4:11 (AML) cells were seeded in a 96-well plate and incubated in the presence of various concentrations of compounds for 4 h. Relative mRNA levels were quantitated by using QuantiGene 2.0 assay (Affymetrix) according to the manufacturer's recommendation. Signals were detected by using an Envision plate reader (Perkin-Elmer). Biological duplicates were averaged and normalized to vehicle (DMSO) control to calculate percent MYC mRNA levels.

The mark [3] stands for this setting: BRD4 (BD1) 30 nM, biotinylated H4-tetraacetyl peptide 200 nM, read-out: BRD4 AlphaLisa.

As to `Cc1nnc2n1-c1ccc(Br)cc1N(c1ccc(Cl)cc1)CC2` [Compound 13, 8-bromo-6-(4-chlorophenyl)-1-methyl-5,6-dihydro-4H-benzo[b][1,2,4]triazolo[4,3-d][1,4]diazepine], the IC50 (in assay [1]; at BRD4 (BD1) (setting [3])) was 0.1 to 1 µM throughout.
`COc1ccc2c(n1)N(c1ccc(C#N)cc1)CC(C)c1nnc(C)n1-2` (stereo not shown) [Compound 84, 4-(8-methoxy-1,4-dimethyl-4H-pyrido[2,3-b][1,2,4]triazolo[4,3-d][1,4]diazepin-6(5H)-yl)benzonitrile]: the IC50 in assay [2] is 1 to 10 µM; in assay [1] it was above 1 µM; at BRD4 (BD1) (setting [3]), above 0.5 µM.
For `Cc1nnc2n1-c1ccccc1N(c1ccc(Cl)cc1)CC21CC1` [Compound 34, 6-(4-chlorophenyl)-1-methyl-5,6-dihydrospiro[benzo[b][1,2,4]triazolo[4,3-d][1,4]diazepine-4,1′-cyclopropane]], on BRD4 (BD1) (setting [3]), the IC50 fell in the range of 0.1 to 1 µM.
As for `Cc1nnc2n1-c1ccc(-c3ccc(N)nc3)cc1N(c1ccc(Cl)cc1)CC2C` (stereo not shown) [Compound 23, 4H-[1,2,4]triazolo[4,3-a][1,5]benzodiazepine,5,6-dihydro-1,4-dimethyl-8-(6-aminopyridin-3-yl)-6-(4-chloro-phenyl)], the IC50 (in assay [2]; in assay [1]; at BRD4 (BD1) (setting [3])) was below 0.1 µM in each case.
Turning to `Cc1nnc2n1-c1ccccc1N(c1ccc(Cl)cc1)CC2CCO` (stereo not shown) [Compound 9, 2-(6-(4-chlorophenyl)-1-methyl-5,6-dihydro-4H-benzo[b][1,2,4]triazolo[4,3-d][1,4]diazepin-4-yl)ethanol], the IC50 (in assay [1]; on BRD4 (BD1) (setting [3])) was 1 to 10 µM in each case.
For the molecule `Cc1nnc2n1-c1cc(F)ccc1N(c1ccc(Cl)cc1)CC2C` (stereo not shown) [Compound 35, 4H-[1,2,4]triazolo[4,3-a][1,5]benzodiazepine,5,6-dihydro-1,4-dimethyl-9-fluoro-6-(4-chloro-phenyl)], at BRD4 (BD1) (setting [3]), the IC50 was in the range of 0.1 to 1 µM.
On to `Cc1nnc2n1-c1ccc(C(=O)N3CCOCC3)cc1N(c1ccc(Cl)cc1)C[C@H]2C` [Compound 56, 4-R-4H-[1,2,4]triazolo[4,3-a][1,5]benzodiazepine,5,6-dihydro-1,4-dimethyl-8-(morpholine-4-carbonyl)-6-(4-chloro-phenyl)], for which the IC50 in assay [1] was above 1 µM; on BRD4 (BD1) (setting [3]) it was 0.1 to 1 µM.
Consider `Cc1nnc2n1-c1ccccc1N(c1ccc(Cl)cn1)CC2` [Compound 8, 6-(5-chloropyridin-2-yl)-1-methyl-5,6-dihydro-4H-benzo[b][1,2,4]triazolo[4,3-d][1,4]diazepine], for which the IC50 (in assay [1]; at BRD4 (BD1) (setting [3])) was 1 to 10 µM throughout.
Turning to `Cc1nnc2n1-c1ccc(-c3cnn(C)n3)cc1N(c1ccc(C#N)cc1)C[C@@H]2C` [Compound 74, (R)-4H-[1,2,4]Triazolo[4,3-a][1,5]benzodiazepine, 5,6-dihydro-1,4-dimethyl-8-(2-methyl-2H-1,2,3-triazole-4-yl)-6-(4-cyano-phenyl)], the IC50 in assay [1] was above 1 µM; on BRD4 (BD1) (setting [3]) it was 0.1 to 1 µM.
Taken in the same sequence, the figures for `Cc1nnc2n1-c1ccccc1N(c1ccc(Cl)cc1)CC21CC1CO` (stereo not shown) [Compound 11, (6-(4-chlorophenyl)-1-methyl-5,6-dihydrospiro[benzo[b][1,2,4]triazolo[4,3-d][1,4]diazepine-4,1′-cyclopropan]-2′-yl)methanol] were 1 to 10 µM and 1 to 10 µM.
For the molecule `Cc1nnc2n1-c1ccc(-c3cnn(C)c3)cc1N(c1ccc(Cl)cc1)CC2` [Compound 30, 4H-[1,2,4]triazolo[4,3-a][1,5]benzodiazepine,5,6-dihydro-1methyl-8-(1-methyl-1H-pyrazol-4-yl)-6-(4-chloro-phenyl)], on BRD4 (BD1) (setting [3]), the IC50 was below 0.1 µM.
For `Cc1nnc2n1-c1ccc(-c3ccccc3)cc1N(C)CC2` [Compound 4, 1,6-dimethyl-8-phenyl-5,6-dihydro-4H-benzo[b][1,2,4]triazolo[4,3-d][1,4]diazepine], the IC50 (in assay [1]; at BRD4 (BD1) (setting [3])) was above 10 µM each time.
As for `Cc1nnc2n1-c1ccc(-c3ccc(N)nc3)cc1NCC2` [Compound 6, 5-(1-methyl-5,6-dihydro-4H-benzo[b][1,2,4]triazolo[4,3-d][1,4]diazepin-8-yl)pyridin-2-amine], the IC50 in assay [1] was above 10 µM; on BRD4 (BD1) (setting [3]), 1 to 10 µM.
With `Cc1nnc2n1-c1ccccc1NC(C)C2` (stereo not shown) [Compound 12, 1,5-dimethyl-5,6-dihydro-4H-benzo[b][1,2,4]triazolo[4,3-d][1,4]diazepine], the IC50 (in assay [1]; at BRD4 (BD1) (setting [3])) was above 10 µM throughout.
As to `Cc1nnc2n1-c1ccc(-c3ccccc3)cc1N(c1ccc(Cl)cc1)CC2` [Compound 14, 6-(4-chlorophenyl)-1-methyl-8-phenyl-5,6-dihydro-4H-benzo[b][1,2,4]triazolo[4,3-d][1,4]diazepine], the values for the IC50 (in assay [1]; on BRD4 (BD1) (setting [3])) were 1 to 10 µM and 0.1 to 1 µM, respectively.
Turning to `Cc1nnc2n1-c1ccc(-c3cnc(N)cn3)cc1N(c1ccc(S(C)(=O)=O)cc1)C[C@H]2C` [Compound 79, (R)-5-(1,4-dimethyl-6-(4-(methylsulfonyl)phenyl)-5,6-dihydro-4H-benzo[b][1,2,4]triazolo[4,3-d][1,4]diazepin-8-yl)pyrazin-2-amine], the IC50 in assay [2] is 0.1 to 1 µM; on BRD4 (BD1) (setting [3]) it was below 0.1 µM.
With `Cc1nnc2n1-c1ccc(-c3ccc(N)nc3)cc1N(c1cnn(C)c1)C[C@H]2C` [Compound 76, (R)-5-(1,4-dimethyl-6-(1-methyl-1H-pyrazol-4-yl)-5,6-dihydro-4H-benzo[b][1,2,4]triazolo[4,3-d][1,4]diazepin-8-yl)pyridin-2-amine], the IC50 in assay [2] and in assay [1] was 0.1 to 1 µM each time.
On to `Cc1nnc2n1-c1ccc(-c3ccc(=O)[nH]c3)cc1N(c1ccc(S(C)(=O)=O)cc1)C[C@H]2C` [Compound 78, (R)-5-(1,4-dimethyl-6-(4-(methylsulfonyl)phenyl)-5,6-dihydro-4H-benzo[b][1,2,4]triazolo[4,3-d][1,4]diazepin-8-yl)pyridin-2(1H)-one], for which the IC50 in assay [2] was 1 to 10 µM; at BRD4 (BD1) (setting [3]) it was 0.1 to 1 µM.
With `Cc1nnc2n1-c1ccc(Br)cc1N(c1ccc(Cl)cc1)CC21CC1` [Compound 33, 8-bromo-6-(4-chlorophenyl)-1-methyl-5,6-dihydrospiro[benzo[b][1,2,4]triazolo[4,3-d][1,4]diazepine-4,1′-cyclopropane]], the IC50 at BRD4 (BD1) (setting [3]) lay within 0.1 to 1 µM.
For `CCC1CN(c2ccc(Cl)cc2)c2ccccc2-n2c(C)nnc21` (stereo not shown) [Compound 32], the IC50 at BRD4 (BD1) was in the range of 1 to 10 µM.
With `Cc1nnc2n1-c1ccc(C#CC(C)(C)O)cc1N(c1ccc(Cl)cc1)CC2C` (stereo not shown) [Compound 36, 4H-[1,2,4]triazolo[4,3-a][1,5]benzodiazepine,5,6-dihydro-1,4-dimethyl-8-(3-hydroxy-3-methylbut-1-ynyl)-6-(4-chloro-phenyl)], the IC50 at BRD4 (BD1) (setting [3]) lay within 0.1 to 1 µM.
In the case of `Cc1nnc2n1-c1ccc(-c3cnn(C)c3)cc1N(c1ccc(C#N)cc1)C[C@@H]2C` [Compound 45, (S)-4H-[1,2,4]triazolo[4,3-a][1,5]benzodiazepine,5,6-dihydro-1,4-dimethyl-8-(1-methyl-1H-pyrazol-4-yl)-6-(4-cyano-phenyl)], the results for the IC50 (in assay [1]; at BRD4 (BD1) (setting [3])) were above 1 µM and 0.1 to 1 µM, respectively.
For the molecule `CCNC(=O)CC1CN(c2ccc(Cl)cc2)c2ccccc2-n2c(C)nnc21` (stereo not shown) [Compound 10, 2-(6-(4-chlorophenyl)-1-methyl-5,6-dihydro-4H-benzo[b][1,2,4]triazolo[4,3-d][1,4]diazepin-4-yl)-N-ethylacetamide], the IC50 (in assay [1]; on BRD4 (BD1) (setting [3])) was 1 to 10 µM throughout.
On to `Cc1nnc2n1-c1ccc(-c3ccccc3)cc1NCC2` [Compound 7, 1-methyl-8-phenyl-5,6-dihydro-4H-benzo[b][1,2,4]triazolo[4,3-d][1,4]diazepine], for which the IC50 in assay [1] is above 1 µM; at BRD4 (BD1) (setting [3]) it was above 10 µM.
Taken in the same sequence, the figures for `Cc1nnc2n1-c1ccc(-c3cnc(N)nc3)cc1N(c1ccc(Cl)cc1)C[C@@H]2C` [Compound 40, (S)-4H-[1,2,4]triazolo[4,3-a][1,5]benzodiaze-pine,5,6-dihydro-1,4-dimethyl-8-(2-aminopyrimidin-5-yl)-6-(4-chloro-phenyl)] were above 1 µM and 1 to 10 µM.
`Cc1nnc2n1-c1ccc(-c3ccc(N)nc3)cc1N(C)CC2` [Compound 5, 5-(1,6-dimethyl-5,6-dihydro-4H-benzo[b][1,2,4]triazolo[4,3-d][1,4]diazepin-8-yl)pyridin-2-amine]: the IC50 (in assay [1]; on BRD4 (BD1) (setting [3])) was 1 to 10 µM in each case.
Take `Cc1nnc2n1-c1ccc(C#CC(C)(C)N)cc1N(c1ccc(Cl)cc1)CC2C` (stereo not shown) [Compound 31, 4H-[1,2,4]triazolo[4,3-a][1,5]benzodiazepine,5,6-dihydro-1,4-dimethyl-8-(3-amino-3-methylbut-1-ynyll)-6-(4-chloro-phenyl)]: the IC50 at BRD4 (BD1) (setting [3]) lay within 0.1 to 1 µM.
